According to patent US20230129034A1, “TREATMENT OF DISEASE WITH ESTERS OF SELECTIVE RXR AGONISTS” (Io Therapeutics, Inc., priority 2017, published 2023):

Legend:
[1] = Cmax after oral doses of IRX4204; details: in vivo, 24 mg/m2; oral doses of 24 mg/m^2/day
[2] = tested on: oligodendrocyte differentiation and remyelination; experiment: In vitro measures of oligodendrocyte differentiation and remyelination; format: cell-based
[3] = Thyroid function in human subjects treated with IRX4204; format: in vivo
PPARy/RXR = experiment: Permissive heterodimer transactivation assay, CV-1 cells, 3x(rAOX/DR1)-tk-Luc; format: cell-based; details: 20 hr, luciferase vs rosiglitazone
Text: For PPARy: CV-1 cells were transfected with 3x(rAOX/DR1)-tk-Luc reporter gene and an expression vector for PPARy. For FXR:CV-1 cells were transfected with 3x(IBABP/IRI)-tk-Luc reporter gene and vectors for FXR and RXRα. For LXR:CV-1 cells were transfected with 3x(PLTP/LXRE)-tk-Luc reporter gene with vectors for LXRα or LXRβ. For Nurr1: COS7 cells were transfected with 3xNBRE-tk-luc reporter gene and full length Nurr-1 with or without full-length RXRα plasmid. […] Luciferase data were normalized to co-transfected β-gal activity. Luciferase activity was expressed as percent of maximal activity obtained using specific agonists. Rosiglitazone (PPARy), GW4064 (FXR), T0901317 (LXR).

RXRγ = target: T1, RXRγ (Homo sapiens, UniProt P48443); experiment: Competitive displacement of [3H]-9CRA from purified receptor; details: 10 nM [3H]-9CRA; read-out: RXR Binding Affinity Ki (nM) RXRγ
T1 construct: an expression construct including a full length RXRα, RXRβ, or RXRy; expressed in transfected cells; host or cells: CV-1
T1 sequence (P48443 1-463): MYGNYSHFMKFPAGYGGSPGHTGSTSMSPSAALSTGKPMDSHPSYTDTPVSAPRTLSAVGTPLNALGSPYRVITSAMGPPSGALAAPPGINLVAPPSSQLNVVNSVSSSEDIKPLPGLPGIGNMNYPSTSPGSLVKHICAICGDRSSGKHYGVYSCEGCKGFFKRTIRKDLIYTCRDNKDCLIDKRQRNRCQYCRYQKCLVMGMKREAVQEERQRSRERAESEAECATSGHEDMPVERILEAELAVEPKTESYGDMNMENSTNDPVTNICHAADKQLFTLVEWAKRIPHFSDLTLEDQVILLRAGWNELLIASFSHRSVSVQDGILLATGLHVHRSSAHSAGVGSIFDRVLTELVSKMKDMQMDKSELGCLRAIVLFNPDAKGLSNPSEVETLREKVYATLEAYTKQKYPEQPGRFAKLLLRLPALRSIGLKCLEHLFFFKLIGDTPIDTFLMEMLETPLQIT
Text: (§1) Standard errors (±) among independent experiments are indicated.

RXRα = target: T2, RXRα (Homo sapiens, UniProt P19793); experiment: as above; details: 10 nM [3H]-9CRA; read-out: RXR Binding Affinity Ki (nM) RXRα
T2 construct: an expression construct including a full length RXRα, RXRβ, or RXRy; expressed in transfected cells; host or cells: CV-1
T2 sequence (P19793 1-462): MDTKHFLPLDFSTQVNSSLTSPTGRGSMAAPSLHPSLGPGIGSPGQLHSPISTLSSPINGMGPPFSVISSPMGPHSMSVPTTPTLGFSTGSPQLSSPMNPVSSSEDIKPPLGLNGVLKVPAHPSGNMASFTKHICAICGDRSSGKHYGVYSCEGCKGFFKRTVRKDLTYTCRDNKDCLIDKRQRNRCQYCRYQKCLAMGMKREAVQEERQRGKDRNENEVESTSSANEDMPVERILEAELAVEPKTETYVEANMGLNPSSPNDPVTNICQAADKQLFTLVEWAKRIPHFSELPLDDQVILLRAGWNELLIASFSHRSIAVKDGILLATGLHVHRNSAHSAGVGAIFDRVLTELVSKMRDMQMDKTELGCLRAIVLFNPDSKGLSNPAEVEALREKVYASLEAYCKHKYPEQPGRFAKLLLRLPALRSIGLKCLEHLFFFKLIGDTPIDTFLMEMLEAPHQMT
Text: as §1

RARβ = target: T3, RARβ (Homo sapiens, UniProt P10826); experiment: Competitive displacement of [3H]-ATRA from purified receptor; details: 5 nM [3H]-ATRA; read-out: RAR Binding Affinity Ki (nM) RARβ
T3 construct: made in house; host or cells: SF21 insect cells (baculovirus)
Text: as §1

RARγ = RARγ (Homo sapiens, UniProt P13631); experiment: as above; details: 5 nM [3H]-ATRA; read-out: RAR Binding Affinity Ki (nM) RARγ
Text: as §1

RARα = target: T4, RARα (Homo sapiens, UniProt P10276); experiment: as above; details: 5 nM [3H]-ATRA; read-out: RAR Binding Affinity Ki (nM) RARα
T4 construct: made in house; host or cells: SF21 insect cells (baculovirus)
Text: as §1

T3 sequence (P10826 whole entry, species assumed): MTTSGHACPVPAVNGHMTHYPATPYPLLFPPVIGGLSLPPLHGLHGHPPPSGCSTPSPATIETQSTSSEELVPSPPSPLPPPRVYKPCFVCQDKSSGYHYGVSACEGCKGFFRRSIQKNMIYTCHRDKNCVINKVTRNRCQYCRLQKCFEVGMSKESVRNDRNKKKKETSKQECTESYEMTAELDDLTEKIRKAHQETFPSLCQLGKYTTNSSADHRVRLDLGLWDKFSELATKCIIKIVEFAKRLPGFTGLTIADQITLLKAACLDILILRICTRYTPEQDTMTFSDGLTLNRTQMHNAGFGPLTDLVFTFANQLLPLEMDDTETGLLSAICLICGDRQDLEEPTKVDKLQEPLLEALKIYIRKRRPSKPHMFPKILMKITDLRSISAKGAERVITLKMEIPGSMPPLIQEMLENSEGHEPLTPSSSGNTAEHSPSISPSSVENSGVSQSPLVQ
T4 sequence (P10276 whole entry, species assumed): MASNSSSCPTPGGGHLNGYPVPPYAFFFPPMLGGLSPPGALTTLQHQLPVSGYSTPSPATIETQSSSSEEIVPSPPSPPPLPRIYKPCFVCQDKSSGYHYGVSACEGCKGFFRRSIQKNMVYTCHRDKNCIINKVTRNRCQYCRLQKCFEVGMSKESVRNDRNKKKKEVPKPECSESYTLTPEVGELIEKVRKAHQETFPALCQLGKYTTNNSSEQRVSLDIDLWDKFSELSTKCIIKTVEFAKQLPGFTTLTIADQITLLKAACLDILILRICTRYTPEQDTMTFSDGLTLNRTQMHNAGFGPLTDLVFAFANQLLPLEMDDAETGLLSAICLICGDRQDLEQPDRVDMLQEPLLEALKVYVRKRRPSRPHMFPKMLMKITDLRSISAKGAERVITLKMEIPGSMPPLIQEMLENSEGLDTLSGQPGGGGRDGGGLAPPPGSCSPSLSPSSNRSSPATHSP
Sequence of RARγ (P13631 whole entry, species assumed): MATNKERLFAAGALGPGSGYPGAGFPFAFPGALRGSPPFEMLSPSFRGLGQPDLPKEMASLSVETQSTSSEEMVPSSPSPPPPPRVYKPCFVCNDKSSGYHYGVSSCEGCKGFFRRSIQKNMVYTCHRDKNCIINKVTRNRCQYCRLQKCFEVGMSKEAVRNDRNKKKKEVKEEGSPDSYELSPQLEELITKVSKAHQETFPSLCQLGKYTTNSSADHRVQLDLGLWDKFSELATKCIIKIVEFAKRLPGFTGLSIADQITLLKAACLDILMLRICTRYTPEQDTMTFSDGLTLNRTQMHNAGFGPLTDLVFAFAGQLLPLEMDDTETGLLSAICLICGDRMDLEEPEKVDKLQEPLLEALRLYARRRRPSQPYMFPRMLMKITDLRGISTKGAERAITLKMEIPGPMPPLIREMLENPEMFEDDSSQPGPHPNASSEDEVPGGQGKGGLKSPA

SMILES	Cmax [1] [nM]	concentration with marginal activity detected [2] [pM]	circulating thyroxine levels [3]	plasma levels of TSH [3]	activation of PPARy/RXR heterodimer (PPARy/RXR)	Ki (RXRγ) [nM]	Ki (RXRα) [nM]	Ki (RARβ) [nM]	Ki (RARγ) [nM]	Ki (RARα) [nM]
CC(/C=C/[C@@H]1C[C@]1(C)c1ccc2c(c1)C(C)(C)CCC2(C)C)=C\C(=O)O [IRX4204, 3,7-dimethyl-6(S),7(S)-methano,7-[1,1,4,4-tetramethyl-1,2,3,4-tetrahydronaphth-7-yl]2(E),4(E) heptadienoic acid]	219	1	reduction in circulating thyroxine levels	reduction in plasma levels of TSH	–	–	–	–	–	–
CCOC(=O)/C=C(C)/C=C/[C@@H]1C[C@]1(C)c1ccc2c(c1)C(C)(C)CCC2(C)C [IRX4204EE, 3,7-dimethyl-6(S),7(S)-methano,7-[1,1,4,4-tetramethyl-1,2,3,4-tetrahydronaphth-7-yl]2(E),4(E) heptadienoic ethyl ester]	–	–	–	–	very little activity	> 1000	> 1000	> 1000	> 1000	> 1000
